These results are taken from patent publication US20210253518A1, “KINASE INHIBITOR” (NISSAN CHEMICAL CORPORATION, priority 2018, published 2021).

The subject of one assay is YAP protein. Kind of assay: Imaging analysis of nuclear translocation in SKOV3 cells. It is filed as cell-based, human. The following applies: 10 μM, 4 hr, ratio of fluorescence intensity nucleus/cytoplasm, no addition 6.15. The procedure:
Compounds k-1:B-1, k-1:H-1, and k-1:J-1 were evaluated for nuclear translocation of YAP protein and TAZ protein. For the nuclear translocation, imaging analysis was performed using the human ovarian cancer cell line SKOV3 (manufactured by DS Pharma Biomedical Co., Ltd) and OperettaCLS (manufactured by PerkinElmer) described below. The compounds were added such that the final concentration of the test concentration of k-1:B-1, k-1:H-1, and k-1:J-1 was 10 μM.
Human ovarian cancer cell line SKOV3 cultured according to the protocol recommended by DS Pharma Biomedical Co., Ltd. was seeded on a 96-well plate (manufactured by PerkinElmer, CellCarrier-Ultra) at 15,000 cells/90 μL/well on the cycloolefin bottom surface, and cultured in a CO2 incubator (37° C., 5% CO2) for 1 day. After culturing, 10 μL of k-1:B-1, k-1:H-1, and k-1:J-1 solutions having a concentration of 100 μM and dissolved in DMSO was added. The cells were further cultured in a CO2 incubator at 37° C. for 4 hr. The medium was exchanged with 4% para-formaldehyde, and the cells were fixed by allowing to stand at room temperature for 10 min. The fixed cells were subjected to immunostaining with AlexaFluor® 647-labeled YAP antibody (manufactured by Cell Signaling Technology), anti-mouse TAZ (D-8) antibody (manufactured by SantaCruz), AlexaFluor® 555-labeled anti-mouse IgG antibody (manufactured by Thermo Fisher Scientific), according to the recommended protocol produced by Cell Signaling Technology, and the cell nucleus was further stained with 10 μg/mL Hoechst33342 solution.
Nine fields of view were imaged per well using a 20× objective lens of Operatta CLS. The cell nucleus region and the cytoplasm region were identified from the obtained fluorescence images by using the analysis software Harmony (manufactured by PerkinElmer), and AlexaFluor® 647 fluorescence intensity per unit area and the AlexaFluor® 555 fluorescence intensity per unit area in each region were extracted. The nuclear translocation was evaluated by calculating the ratio of the fluorescence intensity of the cell nucleus region to the fluorescence intensity of the cytoplasmic region from the extracted values. The value becomes greater than 1 as the YAP protein and TAZ protein transfer into the cell nucleus, and less than 1 when localized in the cytoplasm.
The specific compound used in the present invention was evaluated for the nuclear translocation of YAP protein and TAZ protein. For the nuclear translocation, imaging analysis was performed using the human ovarian cancer cell line SKOV3 (DS Pharma Biomedical Co., Ltd) and OperettaCLS (PerkinElmer) described below. The specific compound was added such that the final concentration of the test concentration of the compound used in the present invention was 10 μM.
Human ovarian cancer cell line SKOV3 cultured according to the protocol recommended by DS Pharma Biomedical Co., Ltd. was seeded on a 96-well plate (PerkinElmer, CellCarrier-Ultra) at 15,000 cells/90 μL/well on the cycloolefin bottom surface, and cultured in a CO2 incubator (37° C., 5% CO2) for 1 day. After culturing, a solution of the specific compound used in the present invention dissolved in DMSO was added. The cells were further cultured in a CO2 incubator at 37° C. for 4 hr, the medium was exchanged with 4% para-formaldehyde, and the cells were fixed by allowing to stand at room temperature for 10 min. The fixed cells were subjected to immunostaining with AlexaFluor® 647-labeled YAP antibody (Cell Signaling Technology), anti-mouse TAZ (D-8) antibody (SantaCruz), AlexaFluor® 555-labeled anti-mouse IgG antibody (Thermo Fisher Scientific), according to the recommended protocol produced by Cell Signaling Technology, and the cell nucleus was further stained with 10 μg/mL Hoechst33342 solution.
Nine fields of view were imaged per well using a 20× objective lens of Operatta CLS. […]

Assay [1] deals with mouse partial liver resection model. Briefly: Liver weight increase in mouse partial liver resection model. It is filed as in vivo. Conditions: 10 mg/kg intraperitoneally 4 times every 24 hr, about 30% of the liver removed, FIG. 2. As to the method:
A partial liver resection model in which the mouse liver was partially resected was prepared as described below, and the liver weight increasing effect of the specific compound was evaluated by comparing the liver weight immediately after the resection with the liver weight 3 days after the resection.
A 0.5 w/v % methylcellulose aqueous solution (0.5% MC, manufactured by FUJIFILM Wako Pure Chemical Corporation) and k-1:B-1, k-1:J-1 were evaluated. k-1:B-1 and k-1:J-1 were suspended in 0.5% MC, and prepared at a final concentration of 1 mg/mL.
Mice, BALB/cAnNCrlCrlj, 5-week-old, male, were purchased from Charles River Laboratories, Japan. In terms of the 0.5% MC administration control group, 0.5% MC 10 mL/kg was administered intraperitoneally once, and 24 hr later, the entire liver was isolated and the liver weight was measured (n=5). […] After that, the abdomen was closed, and 24 hr after the final administration, the entire liver was removed and the liver weight was measured (n=4). In terms of the k-1:B-1 or k-1:J-1 administration-control group, k-1:B-1 or k-1:J-1 10 mg/kg, 10 mL/kg, was intraperitoneally administered once, and 24 hr later, the entire liver was isolated and the liver weight was measured (n=5). […] After that, the abdomen was closed, and 24 hr after the final administration, the entire liver was removed and the liver weight was measured (n=5).

For `CCC(=NNC(=O)CNc1ccccc1)c1ccc(O)c(C)c1O` [k-1:H-1], the “YAP nuclear translocation rate” value in the assay with YAP protein amounted to 7.60.
On to `CC/C(=N\NC(=O)C(C)Nc1ccccc1)c1ccc(O)c(C)c1O` (centres unmarked) [k-1:B-1], for which, in assay [1], the “liver weight ratio after partial liver resection” value is given as “promoting recovery of the liver weight after excision”. For the same molecule, the “YAP nuclear translocation rate” value in the assay on YAP protein is listed as 6.98.
Regarding `CC/C(=N\NC(=O)NCc1cccc(O)c1)c1ccc(O)c(C)c1O` [k-1:J-1], in assay [1], the “liver weight ratio after partial liver resection” value was “promoting recovery of the liver weight after excision”. Besides, the “YAP nuclear translocation rate” value in the assay with YAP protein is recorded as 7.92.
